Assays:
[1] = test system: corneal neuropathic pain; experiment: Eye drops without scleral lens for corneal neuropathic pain; type: in vivo, human; settings: Example 5, eye drops 0.5% lacosamide
Protocol: Eye drops containing 0.5% lacosamide were administered to the eyes of two patients and to the an eye of the inventor. […] Therefore, it is believed that lacosamide may be used in eye drops at a concentration of up to 5% to treat corneal neuropathic pain without depressing corneal sensation.

[2] = test system: corneal neuropathic pain; experiment: Treatment of corneal neuropathic pain in patients, drug solution in the fluid reservoir of a scleral lens (BOS-P); type: in vivo, human
Protocol: (§1) A patient with well established primary Sjögren's syndrome and severe dry eyes was treated for intense, constant corneal pain using the anesthetic delivery system disclosed herein. Specifically, the patient was treated with bupivacaine and BOS-P devices. The concentration of non-preserved bupivacaine was rapidly titrated using frequent (every 2-5 minutes) drops in the more symptomatic left eye (open label) measuring corneal sensitivity with a Cochet-Bonnet aesthesiometer (with adequate recovery times) until reaching the concentration that avoided any depression of corneal sensitivity. The sub-anesthetic concentration in this patient was determined to be 0.001%. Both BOS-P devices were filled with 0.001% bupivacaine and inserted into the patient's eyes. The patient then left.
The patient was given a vial of 0.01% bupivacaine to dilute 1:10 (e.g., add one drop of 0.01% bupivacaine to nine drops of saline) to fill the reservoir of the left lens prior to inserting it the next morning.
They wore the BOS-P containing 0.001% bupivacaine in their left eye, and the BOS-P containing saline in their right eye unmasked to the patient and doctor, for about 8 hours. […] Corneal sensation in the treated eye was normal. […]

[3] = test system: corneal sensation; experiment: Corneal sensitivity measured with a Cochet-Bonnet aesthesiometer; type: in vivo, human
From the text: The sub-hypoesthetic dose for a sodium channel blocker or a sodium channel modulator may vary between patients. […] The sub-hypoesthetic dose of a sodium channel blocker or a sodium channel modulator can be determined for an individual patient by selecting a higher starting concentration and gradually reducing the concentration via titration until reaching a sub-hypoesthetic dose as determined by a contact and non-contact esthesiometer. A non-limiting example of a method of determining corneal sensitivity is Cochet-Bonnet aesthesiometry.
As used herein, the phrases “sub-anesthetic dose” and “sub-anesthetic concentration” refer to a dose of a sodium channel blocker or a sodium channel modulator or a sodium channel modulator that is lower than the anesthetic dose. “Sub-anesthetic dose” and “sub-anesthetic concentration” may be used interchangeably. The sub-anesthetic dose of a sodium channel blocker or a sodium channel modulator may vary between patients. The sub-anesthetic dose of a sodium channel blocker or a sodium channel modulator can be determined for an individual patient by selecting a higher starting concentration and gradually reducing the concentration via titration until reaching a sub-anesthetic dose as determined by a contact and non-contact esthesiometer. A non-limiting example of a starting concentration of a sodium channel blocker or a sodium channel modulator is about 0.02%. In some embodiments, the concentration of the sodium channel blocker or a sodium channel modulator may be titrated down to a concentration that avoids any depression of corneal sensitivity. A non-limiting example of a method of determining corneal sensitivity is Cochet-Bonnet aesthesiometry.
as §1
The patient was given a vial of 0.01% bupivacaine to dilute 1:10 (e.g., add one drop of 0.01% bupivacaine to nine drops of saline) to fill the reservoir of the left lens prior to inserting it the next morning. […]

[4] = test system: cornea; experiment: Examination of the cornea for adverse effects (fluorescein staining, slit lamp examination, confocal microscopy); type: in vivo, human
Protocol: They wore the BOS-P containing 0.001% bupivacaine in their left eye, and the BOS-P containing saline in their right eye unmasked to the patient and doctor, for about 8 hours. […] Corneal sensation in the treated eye was normal.
The patient returned the following day 2 hours after inserting the scleral lenses containing 0.015% ropivacaine.
A patient suffered from severe corneal neuropathic pain for many years, greatly limiting the patient's quality of life. This disease was refractory to previous treatments. Lacosamide was placed in the fluid reservoir of the device where it remained in contact with the cornea while it was worn (approximately 10 hours/day).

[5] = test system: cornea; settings: 0.05% concentration, after photorefractive keratectomy; cited from earlier work

COC[C@@H](NC(C)=O)C(=O)NCc1ccccc1 [lacosamide]
duration of effect, one patient [1]: over four hours
duration of effect, the other patient [1]: over two hours
onset of pain resolution [1]: almost immediately after administration
corneal neuropathic pain ([1]; both patients): complete resolution of corneal neuropathic pain
corneal neuropathic pain ([2]; Example 4, 0.003% lacosamide in BOS-P, approximately 10 hours/day): significantly mitigated
eye and co-morbid pain symptoms ([2]; Example 6, chronic graft versus host disease patient, lacosamide 0.05% in scleral lens reservoir): disappeared
maximum concentration that avoided significant depression of corneal sensation ([3]; Example 4, titration, fluid reservoir of BOS-P): 0.003%
corneal sensation ([3]; Example 5, eye drops 0.5% lacosamide, two patients and an eye of the inventor): did not depress corneal sensation
effects on the corneas by slit lamp examination and confocal microscopy ([4]; Example 4, 0.003% lacosamide in BOS-P): without any detrimental effects to the corneas

CCCCN1CCCCC1C(=O)Nc1c(C)cccc1C (stereo not shown) [bupivacaine]
eye comfort reported by patient ([2]; Example 1, next day after both BOS-P devices were filled with 0.001% bupivacaine): more comfortable than they had been in 3 months
pain reported by patient at day's end ([2]; Example 1, second day, left lens reservoir filled with non-preserved bupivacaine): virtual absence of pain in either eye
pain after exposure to glass cleaner or white board marker ([2]; Example 1, second day, exposure would ordinarily trigger severe pain): little or no pain
pain reported after about 8 hours of wear ([2]; Example 1, third day, 0.001% bupivacaine in left BOS-P, saline in right BOS-P): virtually no pain in either eye
pain, Visual Analog Scale ([2]; Example 1, third day, on arrival): virtually no pain in either eye
eye symptoms (photosensitivity, burning pain, inability to read) ([2]; Example 2, 0.002% bupivacaine in both BOS-P lenses, at least 12 hours/day, over several weeks): resolved
eye symptoms ([2]; Example 2, bupivacaine diluted to 0.0014% in BOS-P): resolved
sub-anesthetic concentration (concentration that avoided any depression of corneal sensitivity) ([3]; Example 1, Sjögren's syndrome patient, titration with drops every 2-5 minutes in left eye): 0.001%
corneal sensation by Cochet-Bonnet aesthesiometry ([3]; in vivo): remained intact
fluorescein staining after lens removal ([4]; in vivo): no significant fluorescein staining in either eye

CCCN1CCCC[C@H]1C(=O)Nc1c(C)cccc1C [ropivacaine]
eye pain and photophobia, lenses worn until midnight the previous day ([2]; Example 3, 0.015% ropivacaine in scleral lenses): total resolution of eye pain and photophobia
symptoms at examination, 2 hours after inserting lenses ([2]; Example 3, 0.015% ropivacaine, following day): free of symptoms
eye pain and photosensitivity following application ([2]; Example 3, Stevens-Johnson syndrome patient, 0.015% ropivacaine in scleral lenses, first day): rapid mitigation of eye pain and photosensitivity
eye pain and photophobia at subsequent examinations ([2]; Example 3, ropivacaine in scleral lenses): significant mitigation of eye pain and photophobia
corneal sensitivities at subsequent examinations ([3]; in vivo): normal corneal sensitivities
corneal sensitivity by Cochet-Bonnet aesthesiometer ([3]; in vivo): normal
adverse effects on the eyes from the treatment ([4]; in vivo): no adverse effects
treatment-related complications at subsequent examinations ([4]; in vivo): without adverse treatment-related complications

CCCOc1ccc(C(=O)OCCN(CC)CC)cc1N [Proparacaine, proparacaine]
anesthetic effect, toxicity and safety [5]: non-anesthetic, non-toxic, and safe for at least one week of use

Reference: US20110071630A1, “SODIUM CHANNEL BLOCKER DELIVERY SYSTEM WITH SCLERAL LENS” (Boston Foundation for Sight, priority 2009, published 2011)
